Test results published in patent US20060069132A1, “Azolecarboxamide herbicides” (priority 2004, published 2006).
Like-named read-outs stand apart in the source and are kept apart here.

Legend:
rice = assay: Test B flooded paddy test; type: in vivo, Oryza sativa; settings: Oryza sativa, 336 h, 1000 g ai/ha, scale 0 to 100 (0 no effect, 100 complete control), read-out: Rice plant response rating
How it was run: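 After treating 2-leaf paddy plants or 2–18 cm postemergence plants (1 to 4 leaves) with formulated chemical, researchers kept them in a greenhouse for 13–15 days. Effects were judged visually versus controls: 0 indicates none, 100 total control.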

[1] = test system: small flower umbrella sedge; assay: Test B flooded paddy test; type: in vivo, Cyperus difformis; settings: Cyperus difformis, 336 h, 1000 g ai/ha, scale 0 to 100 (0 no effect, 100 complete control), read-out: Sedge, Umbrella plant response rating
How it was run: (§1)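 Read-out: visual comparison with controls, scored 0 to 100, where 100 means complete control and 0 no effect. Formulated chemicals were applied postemergence to plants 2–18 cm tall (1- to 4-leaf), or to flooded-paddy plants at the 2-leaf stage, then held 13 to 15 days under glass.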

velvetleaf = assay: Test B pre-/postemergence herbicide test; type: in vivo, Abutilon theophrasti
How it was run: (§2)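 Flooded paddy rice and barnyardgrass were treated at the 2-leaf stage; upland plantings received compound either on sown seed or on 1- to 4-leaf seedlings. All were kept 13–15 days in a greenhouse and scored visually, 0–100, relative to untreated plants.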

wild oat = assay: Test B postemergence herbicide test; type: in vivo, Avena fatua; settings: Avena fatua, post-emergence, 336 h, read-out: Oat, Wild plant response rating
How it was run: (§3)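 Greenhouse test; postemergence application to plants at 1–4 leaves (2–18 cm); paddy species at 2 leaves; evaluated visually vs controls at 13–15 days; scale 0–100 (100 = complete control).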

barnyardgrass [2] = assay: Test B flooded paddy test; type: in vivo, Echinochloa crus-galli; settings: Echinochloa crus-galli, 336 h, 1000 g ai/ha, scale 0 to 100 (0 no effect, 100 complete control), read-out: Barnyardgrass plant response rating
How it was run: as §1

giant foxtail = assay: Test B pre-/postemergence herbicide test; type: in vivo, Setaria faberi; settings: for pest or weed control at 500 g/ha: 500 g ai/ha
How it was run: as §2

pigweed = assay: Test B pre-/postemergence herbicide test; type: in vivo, Amaranthus retroflexus; settings: for pest or weed control at 500 g/ha: 500 g ai/ha
How it was run: as §2

wheat = assay: Test B postemergence herbicide test; type: in vivo, Triticum aestivum; settings: Triticum aestivum, post-emergence, 336 h, read-out: Wheat plant response rating
How it was run: as §3

Surinam grass = assay: Test B pre-/postemergence herbicide test; type: in vivo, Urochloa decumbens; settings: for pest or weed control at 500 g/ha: 500 g ai/ha
How it was run: as §2

lambsquarters = assay: Test B pre-/postemergence herbicide test; type: in vivo, Chenopodium album; settings: for pest or weed control at 500 g/ha: 500 g ai/ha
How it was run: as §2

blackgrass = assay: Test B postemergence herbicide test; type: in vivo, Alopecurus myosuroides; settings: Alopecurus myosuroides, post-emergence, 336 h, read-out: Blackgrass plant response rating
How it was run: as §1

barnyardgrass [3] = assay: Test B pre-/postemergence herbicide test; type: in vivo, Echinochloa crus-galli; settings: for pest or weed control at 500 g/ha: 500 g ai/ha
How it was run: (§4)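 Pre: seeds sown, then sprayed. Post: 1–4-leaf plants (2–18 cm) sprayed at the same time. Paddy: flooded, treated at 2-leaf stage. Formulation: non-phytotoxic solvent with surfactant. Greenhouse 13–15 days; visual 0–100 score relative to controls.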

large crabgrass = assay: Test B pre-/postemergence herbicide test; type: in vivo, Digitaria sanguinalis; settings: for pest or weed control at 500 g/ha: 500 g ai/ha
How it was run: as §2

morningglory = assay: Test B pre-/postemergence herbicide test; type: in vivo, Ipomoea coccinea; settings: for pest or weed control at 500 g/ha: 500 g ai/ha
How it was run: as §4

cocklebur = assay: Test B pre-/postemergence herbicide test; type: in vivo, Xanthium strumarium; settings: for pest or weed control at 500 g/ha: 500 g ai/ha
How it was run: as §4

[4] = 125 g ai/ha, 0 is no effect, 100 is complete control, preemergence
[5] = 125 g ai/ha, visual rating, scale 0 (no effect) to 100 (complete control)
[6] = postemergence, 500 g ai/ha, scale 0 to 100, 0 is no effect, 100 is complete control

## CCOC(=O)c1cccc(NC(=O)c2nn(C(C)(C)C)nc2CC)c1 [Compound 360, ethyl 3-[[[2-(1,1-dimethylethyl)-5-ethyl-2H-1,2,3-triazol-4-yl]carbonyl]amino]benzoate]
rice
  plant injury at 1000 g/ha: 50%
[1]
  pest or weed control at 1000 g/ha: 90%
velvetleaf; [4]
  Plant response rating (0 to 100 scale), Velvetleaf: 20
velvetleaf; Abutilon theophrasti, post-emergence, 336 h, 125 g ai/ha, visual rating, scale 0 (no effect) to 100 (complete control), read-out: Velvetleaf plant response rating
  pest or weed control at 125 g/ha: 40%
velvetleaf; Abutilon theophrasti, post-emergence, 336 h, postemergence, 500 g ai/ha, scale 0 to 100, 0 is no effect, 100 is complete control, read-out: Velvetleaf plant response rating
  pest or weed control at 500 g/ha: 50%
Wild oat; [5]
  pest or weed control at 125 g/ha: 40%
Wild oat; [6]
  pest or weed control at 500 g/ha: 60%
Barnyardgrass [2]
  pest or weed control at 1000 g/ha: 40%
Giant foxtail; [4]
  Plant response rating (0 to 100 scale), Foxtail, Giant: 50
Giant foxtail; Setaria faberi, post-emergence, 336 h, 125 g ai/ha, visual rating, scale 0 (no effect) to 100 (complete control), read-out: Foxtail, Giant plant response rating
  pest or weed control at 125 g/ha: 30%
Giant foxtail; Setaria faberi, post-emergence, 336 h, postemergence, scale 0 to 100, 0 is no effect, 100 is complete control, read-out: Foxtail, Giant plant response rating
  pest or weed control at 500 g/ha: 50%
Giant foxtail; Setaria faberi, pre-emergence, 336 h, visual rating, 0 = no effect, 100 = complete control, read-out: Plant response rating, Foxtail, Giant
  pest or weed control at 500 g/ha: 90%
pigweed; [4]
  Plant response rating (0 to 100 scale), Pigweed: 20
pigweed; Amaranthus retroflexus, post-emergence, 336 h, 125 g ai/ha, visual rating, scale 0 (no effect) to 100 (complete control), read-out: Pigweed plant response rating
  pest or weed control at 125 g/ha: 30%
pigweed; Amaranthus retroflexus, post-emergence, 336 h, postemergence, scale 0 to 100, 0 is no effect, 100 is complete control, read-out: Pigweed plant response rating
  pest or weed control at 500 g/ha: 40%
pigweed; Amaranthus retroflexus, pre-emergence, 336 h, visual rating, 0 = no effect, 100 = complete control, read-out: Plant response rating, Pigweed
  pest or weed control at 500 g/ha: 50%
wheat; [5]
  plant injury at 125 g/ha: 30%
wheat; [6]
  plant injury at 500 g/ha: 40%
Surinam grass; [4]
  Plant response rating (0 to 100 scale), Surinam Grass: 20
Surinam grass; Urochloa decumbens, post-emergence, 125 g ai/ha, visual rating, scale 0 (no effect) to 100 (complete control), read-out: Surinam Grass plant response rating
  pest or weed control at 125 g/ha: 10%
Surinam grass; Urochloa decumbens, post-emergence, postemergence, scale 0 to 100, 0 is no effect, 100 is complete control, read-out: Surinam Grass plant response rating
  pest or weed control at 500 g/ha: 30%
Surinam grass; Urochloa decumbens, pre-emergence, visual rating, 0 = no effect, 100 = complete control, read-out: Plant response rating, Surinam Grass
  pest or weed control at 500 g/ha: 50%
lambsquarters; [4]
  Plant response rating (0 to 100 scale), Lambsquarters: 0
lambsquarters; Chenopodium album, post-emergence, 336 h, 125 g ai/ha, visual rating, scale 0 (no effect) to 100 (complete control), read-out: Lambsquarters plant response rating
  pest or weed control at 125 g/ha: 0%
lambsquarters; Chenopodium album, post-emergence, 336 h, postemergence, scale 0 to 100, 0 is no effect, 100 is complete control, read-out: Lambsquarters plant response rating
  pest or weed control at 500 g/ha: 20%
lambsquarters; Chenopodium album, pre-emergence, 336 h, visual rating, 0 = no effect, 100 = complete control, read-out: Plant response rating, Lambsquarters
  pest or weed control at 500 g/ha: 40%
blackgrass; [5]
  pest or weed control at 125 g/ha: 30%
blackgrass; [6]
  pest or weed control at 500 g/ha: 50%
Barnyardgrass [3]; [4]
  Plant response rating (0 to 100 scale), Barnyardgrass: 10
Barnyardgrass [3]; Echinochloa crus-galli, post-emergence, 125 g ai/ha, visual rating, scale 0 (no effect) to 100 (complete control), read-out: Barnyardgrass plant response rating
  pest or weed control at 125 g/ha: 0%
Barnyardgrass [3]; Echinochloa crus-galli, post-emergence, postemergence, scale 0 to 100, 0 is no effect, 100 is complete control, read-out: Barnyardgrass plant response rating
  pest or weed control at 500 g/ha: 30%
Barnyardgrass [3]; Echinochloa crus-galli, pre-emergence, visual rating, 0 = no effect, 100 = complete control, read-out: Plant response rating, Barnyardgrass
  pest or weed control at 500 g/ha: 40%
Large crabgrass; [4]
  Plant response rating (0 to 100 scale), Crabgrass, Large: 40
Large crabgrass; Digitaria sanguinalis, post-emergence, 125 g ai/ha, visual rating, scale 0 (no effect) to 100 (complete control), read-out: Crabgrass, Large plant response rating
  pest or weed control at 125 g/ha: 10%
Large crabgrass; Digitaria sanguinalis, post-emergence, postemergence, scale 0 to 100, 0 is no effect, 100 is complete control, read-out: Crabgrass, Large plant response rating
  pest or weed control at 500 g/ha: 20%
Large crabgrass; Digitaria sanguinalis, pre-emergence, visual rating, 0 = no effect, 100 = complete control, read-out: Plant response rating, Crabgrass, Large
  pest or weed control at 500 g/ha: 80%
morningglory; [4]
  Plant response rating (0 to 100 scale), Morningglory: 0
morningglory; Ipomoea, post-emergence, 336 h, 125 g ai/ha, visual rating, scale 0 (no effect) to 100 (complete control), read-out: Morningglory plant response rating
  pest or weed control at 125 g/ha: 0%
morningglory; Ipomoea, post-emergence, 336 h, postemergence, scale 0 to 100, 0 is no effect, 100 is complete control, read-out: Morningglory plant response rating
  pest or weed control at 500 g/ha: 10%
morningglory; Ipomoea, pre-emergence, 336 h, visual rating, 0 = no effect, 100 = complete control, read-out: Plant response rating, Morningglory
  pest or weed control at 500 g/ha: 10%
cocklebur; [4]
  Plant response rating (0 to 100 scale), Cocklebur: 0
cocklebur; Xanthium strumarium, post-emergence, 125 g ai/ha, visual rating, scale 0 (no effect) to 100 (complete control), read-out: Cocklebur plant response rating
  pest or weed control at 125 g/ha: 10%
cocklebur; Xanthium strumarium, post-emergence, postemergence, scale 0 to 100, 0 is no effect, 100 is complete control, read-out: Cocklebur plant response rating
  pest or weed control at 500 g/ha: 20%
cocklebur; Xanthium strumarium, pre-emergence, visual rating, 0 = no effect, 100 = complete control, read-out: Plant response rating, Cocklebur
  pest or weed control at 500 g/ha: 0%
